How the values were obtained:
[1] = tested on: Spodoptera littoralis larvae; experiment: Bioassay on Spodoptera littoralis larvae fed with peptide-treated tomato leaves; format: in vivo; details: day 13, femtomolar concentration; for average weight of larvae: control 59 mg (FIG. 11A); for survival rate of larvae: control 100% (FIG. 11B)
Protocol: Briefly, S. littoralis larvae were grown in a climate chamber at 25° C., 70% relative humidity (RH), with a 16-hour light and 8-hour dark photoperiod and fed with an artificial diet until completion of the first moult. For the bioassays, 150 larvae for each thesis were grown on tomato leaves for the entire duration of the second instar to adapt them to the different diet. The newly moulted third-instar larvae up to the moult stage were fed with plants on which a composition comprising peptides PS1-70 and PS1-120 had been applied at 100 pM and 100 fM concentrations in 1×PBS buffer. Larvae fed with plants treated with 1×PBS buffer only were used as a control. Bioassays were carried out under the same environmental conditions, in 32-well plastic trays containing 1.5% (w/v) agar and 0.005% (w/v) methyl parahydroxybenzoate, which are useful for creating a humid environment for maintaining cell turgor of tomato leaves. Each experimental group consisted of 32 larvae. The survival of the larvae was monitored daily, and their weight every other day. […] A significant decrease in the survival of larvae fed with leaves of plants treated with the peptides of the invention compared to those fed with leaves of the control plants was also observed for both assays (FIGS. 10B and 10D). […] The same assay scheme was carried out by the present inventors by feeding S. littoralis larvae with leaves treated with the peptide PS1-70 and with peptides having the sequences SEQ ID NO. 3, 5, and 8 at femtomolar concentration. […] A significant decrease was also observed in the survival of larvae fed with peptide-treated leaves compared to those fed with the control leaves (FIG. 11B). […] 8, SEQ ID NO. 3, and SEQ ID NO. 5 (FIG. 11B).

Botrytis cinerea = Botrytis cinerea necrosis areas on treated detached tomato leaves; format: in vivo, Botrytis cinerea on Solanum lycopersicum; details: 100 fM, day 8, control 11.72 mm^2 (FIG. 13)
Protocol: (§1) For the performance of assays on the phytopathogenic Botrytis cinerea and Alternaria alternata fungi, the present inventors used spores of this microorganism obtained from cultures on solid PDA (Potato Dextrose Agar) sporulation substrate. The plates were inoculated with 20 μl of a conidial suspension at a concentration of 1×10^6 spores/ml and incubated for 15 days at 25° C. in the presence of diffused light, so as to obtain complete sporulation. The spores were then collected in 5 ml of sterile water and, in order to remove the mycelium, were filtered through glass wool, washed with sterile distilled water and collected by centrifugation at room temperature. The concentration of spores suitable for inoculation (10^5-10^7 spores/ml) was determined by the serial dilution method using a Burker cell counting chamber for spore counting.
(§2) The assay was carried out on a detached leaf by taking a compound leaf for each treated tomato plant and for each control plant. Each leaflet of the compound leaf was marked with 3 markers in order to guide the subsequent application of the spores and detection of the pathogen developing necrotic areas.
The leaves were treated by applying 2 μl of a composition comprising the peptides PS1-70 and PS1-120 of the invention at a concentration of 100 pM, 100 fM or 1×PBS for the control leaves. After 6 hours, the time necessary for the perception of the peptides, the leaves were detached from the plant and inoculations with 10 μl of spore solution were carried out in the internerve spaces and near the previously marked points. Monitoring was carried out by measuring the necrosis areas (expressed in mm^2) 1, 3, 5, 8 days after inoculation of the pathogen. The necrosis areas recorded on the control leaves were much larger than those detected on plants treated with the peptides of the invention. This difference increased as a function of the time elapsed since inoculation. The resistance inducing effect of the picomolar treatment is already statistically significant from the first day of inoculation of the pathogen up to the eighth day where values of 33 mm^2 were reached on the control leaves, unlike the treated leaves where values not exceeding 18 mm^2 were recorded for both peptides (FIG. 12A).

Alternaria alternata = Alternaria alternata necrosis areas on treated tomato leaves; format: in vivo; details: 100 fM, day 8, control 17 mm^2 (FIG. 14B)
Protocol: as §1, §2
The present inventors also performed assays aimed at determining the effects of exogenous application of the peptides of the invention on tomato plants against the development of the necrotrophic Alternaria alternata fungus (FIG. 14).
The positive effect of the treatment was statistically significant from day 1 of inoculation of the pathogen to day 8 where values of 24 mm^2 were reached on the control leaves, unlike the treated leaves where values of 8.4 and 8.0 mm^2 were recorded on leaves treated with the peptides PS1-70 and PS1-120 at a concentration of 100 fM (FIG. 14A); and values of 17 mm^2 were recorded on the control leaves and values of 8.3 mm^2, 7.9 mm^2, 8.9 mm^2, and 7.8 mm^2 were recorded on leaves treated with the peptides PS1-70, SEQ ID NO.8, SEQ ID NO.3 and SEQ ID NO.5, respectively, at a concentration of 100 fM (FIG. 14B).

CAT2, SAM and APX2 genes = experiment: Salt stress gene expression in tomato plants irrigated with 100 fM peptides; format: in vivo; details: femtomolar
Protocol: The analysis was carried out on the CAT2(A), SAM (B) and APX2 (C) genes. The asterisks indicate the statistical significance of the data by Student's t-test (*p<0.05; **p<0.01; ***p<0.001). […] An experiment was also set up to verify the efficiency of the peptides PS1-70, PS1-120 and SEQ ID NO.5, when administered at femtomolar concentrations, in promoting tolerance to a high salt stress condition.

[2] = Biometric parameters of tomato plants irrigated with peptides; format: in vivo; details: 100 fM
Protocol: FIG. 20 illustrates the effect of irrigation treatment with the peptides PS1-70, PS1-120 and SEQ ID NO.5 at a concentration of 100 fM on the biometric parameters of the tomato plant. […] The asterisks indicate the statistical significance of the data by Student's t-test (*p<0.05). A few biometric parameters are shown in FIG. 20, measured after 14 days of continuous salt stress (150 mM) and 15 days after irrigation with the peptides PS1-70, PS1-120 and SEQ ID NO.5 at 100 fM concentrations, and the respective controls.

With EKETPSQDI [SEQ ID NO. 3] the “average weight of larvae” value [1] was 24 mg, the “survival rate of larvae” value [1] was 43.75% and the necrosis areas (Botrytis cinerea) was 8.89 mm^2. It also gave a necrosis areas (Alternaria alternata) of 8.9 mm^2.
In the case of DDMQEEPKVKLHHEKG [SEQ ID NO. 5], the “activation of salt stress-responsive genes” value (CAT2, SAM and APX2 genes; 8 days after irrigation, 0 mM NaCl (FIG. 18A1, B1, C1)) is reported as “able to activate a series of salt stress-responsive genes”, the “tolerance to salt / induction of responsive genes” value (CAT2, SAM and APX2 genes; irrigated 7 days with 150 mM NaCl (FIG. 18A2, B2, C2)) is reported as “more salt-tolerant than the untreated control plants” and the “root surface (root area)” value ([2]; 14 days of salt stress 150 mM, 15 days after irrigation (FIG. 20A)) is reported as “greater root surface”. For the same sequence, the “growth (fresh weight) of the aerial part” value ([2]; absence of salt (FIG. 20B)) was “able to promote the growth of the aerial part of the plant”, the “average weight of larvae” value [1] was 21 mg and the “survival rate of larvae” value [1] was 15.62%. It also gave a necrosis areas (Botrytis cinerea) of 6.81 mm^2 and a necrosis areas (Alternaria alternata) of 7.8 mm^2.
With “DDMQEEPKVKLHHEKGGDEKEKIIEKETPSQDI [SEQ ID NO. 8]” the “average weight of larvae” value [1] was 13 mg, the “survival rate of larvae” value [1] was 15.62% and the necrosis areas (Botrytis cinerea) was 7.67 mm^2. The necrosis areas (Alternaria alternata) was 7.9 mm^2.
